In brackets after ≈: the same amount, converted by molar mass.
Tested on: S. aureus Col8A (Meth^S)(lac^−)
Assay: Broth microdilution MIC (NCCLS)
Assay type: cell-based
Settings: Staphylococcus aureus
Summary of the method: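 Endpoint: lowest concentration preventing visible or OD650-detected growth. Conditions: Mueller-Hinton broth, serial 2-fold compound dilutions, 5×10^5 CFU/mL, 35° C for 24 h. Inoculum counts were checked by plating on TSA.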

| SMILES | MIC [µg/mL] |
| --- | --- |
| NCCSCc1cnccc1SC1=C(C(=O)O)N2C(=O)[C@@H](NC(=O)/C(=N\O)c3cccc(N)n3)[C@H]2SC1 [Cmpd 24, (7R)-7-[(Z)-2-(2-aminopyrid-6-yl)-2-(hydroxyimino)acetamido]-3-[3-(2-aminoethylthiomethyl)pyrid-4-ylthio]-3-cephem-4-carboxylic acid] | 0.5 (≈ 0.89 µM) |

Tested on: S. aureus ATCC29213
Assay: Human serum binding effect: MIC with and without human serum
Assay type: cell-based, Staphylococcus aureus
Settings: 1:1 human serum:MHB
Summary of the method: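 Serum binding was estimated as the ratio of S. aureus ATCC29213 MIC in 1:1 human serum:Mueller-Hinton broth to MIC without serum. Compounds were serially 2-fold diluted, and wells received an early-log-phase inoculum at 1×10^6 CFU/mL final. Inoculum size was checked by colony counts on TSA after overnight incubation at 35 °C.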

| SMILES | Human serum binding effect (ratio of MIC value determined with and without human serum added) |
| --- | --- |
| NCCSCc1nc(N)sc1SC1=C(C(=O)O)N2C(=O)[C@@H](NC(=O)/C(=N\O)c3nc(N)sc3Cl)[C@H]2SC1 [Cmpd 3, (7R)-7-[(Z)-2-(2-amino-5-chlorothiazol-4-yl)-2-(hydroxyimino)acetamido]-3-[4-(2-aminoethylthiomethyl)-2-amino-1,3-thiazol-5-ylthio]-3-cephem-4-carboxylic acid] | 4 |
| NCCSCc1nc(SCCN)sc1SC1=C(C(=O)O)N2C(=O)[C@@H](NC(=O)/C(=N\O)c3nc(N)sc3Cl)[C@H]2SC1 [Cmpd 11, (7R)-7-[(Z)-2-(2-amino-5-chlorothiazol-4-yl)-2-(hydroxyimino)acetamido]-3-[4-(2-aminoethylthiomethyl)-2-aminoethylthio-1,3-thiazol-5-ylthio]-3-cephem-4-carboxylic acid] | 4 |
| NCCSCc1ncccc1SC1=C(C(=O)O)N2C(=O)[C@@H](NC(=O)/C(=N\O)c3nc(N)sc3Cl)[C@H]2SC1 [Cmpd 13, (7R)-7-[(Z)-2-(2-amino-5-chlorothiazol-4-yl)-2-(hydroxyimino)acetamido]-3-[2-(2-aminoethylthiomethyl)pyrid-3-ylthio]-3-cephem-4-carboxylic acid] | 2 |
| N=C(N)NCCSCc1ncccc1SC1=C(C(=O)O)N2C(=O)[C@@H](NC(=O)/C(=N\O)c3nsc(N)n3)[C@H]2SC1 [Cmpd 14, (7R)-7-[(Z)-2-(5-amino-1,2,4-thiadiazol-3-yl)-2-(hydroxyimino)acetamido]-3-[2-(2-guanidinoethylthiomethyl)pyrid-3-ylthio]-3-cephem-4-carboxylic acid] | 2 |
| NCCSCc1ncccc1SC1=C(C(=O)O)N2C(=O)[C@@H](NC(=O)/C(=N\O)c3nsc(N)n3)[C@H]2SC1 [Cmpd 17, (7R)-7-[(Z)-2-(5-amino-1,2,4-thiadiazol-3-yl)-2-(hydroxyimino)acetamido]-3-[2-(2-aminoethylthiomethyl)pyrid-3-ylthio]-3-cephem-4-carboxylic acid] | 2 |
| NCCSCc1cnccc1SC1=C(C(=O)O)N2C(=O)[C@@H](NC(=O)/C(=N\O)c3nsc(N)n3)[C@H]2SC1 [Cmpd 18, (7R)-7-[(Z)-2-(5-amino-1,2,4-thiadiazol-3-yl)-2-(hydroxyimino)acetamido]-3-[3-(2-aminoethylthiomethyl)pyrid-4-ylthio]-3-cephem-4-carboxylic acid] | 2 |
| NCCSCc1cnccc1SC1=C(C(=O)O)N2C(=O)C(NC(=O)/C(=N\O)c3csc(N)n3)C2SC1 (centres unmarked) [Cmpd 19] | 2 |
| NCCSCc1cnccc1SC1=C(C(=O)O)N2C(=O)[C@@H](NC(=O)/C(=N\O)c3nc(N)sc3Cl)[C@H]2SC1 [Cmpd 20, (7R)-7-[(Z)-2-(2-amino-5-chlorothiazol-4-yl)-2-(hydroxyimino)acetamido]-3-[3-(2-aminoethylthiomethyl)pyrid-4-ylthio]-3-cephem-4-carboxylic acid] | 3 |
| NCCSCc1ccncc1SC1=C(C(=O)O)N2C(=O)[C@@H](NC(=O)/C(=N\O)c3nc(N)sc3Cl)[C@H]2SC1 [Cmpd 21, (7R)-7-[(Z)-2-(2-amino-5-chlorothiazol-4-yl)-2-(hydroxyimino)acetamido]-3-[4-(2-aminoethylthiomethyl)pyrid-3-ylthio]-3-cephem-4-carboxylic acid] | 2 |
| N=C(N)NCCSCc1cnccc1SC1=C(C(=O)O)N2C(=O)[C@@H](NC(=O)/C(=N\O)c3nsc(N)n3)[C@H]2SC1 [Cmpd 25, (7R)-7-[(Z)-2-(5-amino-1,2,4-thiadiazol-3-yl)-2-(hydroxyimino)acetamido]-3-[3-(2-guanidinoethylthiomethyl)pyrid-4-ylthio]-3-cephem-4-carboxylic acid] | 1 |

— patent US6723716B1, “7-acylamino-3-heteroarylthio-3-cephem carboxylic acid antibiotics and prodrugs thereof” (Essential Therapeutics, Inc., priority 1999, dated 2004)
